Laboratory results from PubChem BioAssay (NCI).
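Tested at 5 concentrations; 48 h exposure; 96-well plates; endpoints linearly interpolated, else capped at highest concentration. TGI is the concentration that stops growth completely.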

Experiments:
Assay in all cases: DTP human tumour cell line panel, 48 h
SW-620 colon = test system: SW-620 colon
BT-549 breast = test system: BT-549 breast
HT29 colon = test system: HT29 colon
MALME-3M melanoma = test system: MALME-3M melanoma
OVCAR-5 ovarian = test system: OVCAR-5 ovarian
SF-295 CNS = test system: SF-295 CNS
U251 CNS = test system: U251 CNS
NCI-H460 lung = test system: NCI-H460 lung
M14 melanoma = test system: M14 melanoma
SNB-19 CNS = test system: SNB-19 CNS
OVCAR-3 ovarian = test system: OVCAR-3 ovarian
NCI-H23 lung = test system: NCI-H23 lung
UO-31 renal = test system: UO-31 renal
COLO 205 colon = test system: COLO 205 colon
A549 NSCLC = test system: A549 NSCLC
MOLT-4 leukemia = test system: MOLT-4 leukemia
HOP-92 NSCLC = test system: HOP-92 NSCLC
DU-145 prostate = test system: DU-145 prostate
MDA-MB-435 = test system: MDA-MB-435
RXF 393 renal = test system: RXF 393 renal
OVCAR-4 ovarian = test system: OVCAR-4 ovarian
MDA-N = test system: MDA-N
MDA-MB-231 breast = test system: MDA-MB-231 breast
IGROV1 ovarian = test system: IGROV1 ovarian
786-0 renal = test system: 786-0 renal
TK-10 renal = test system: TK-10 renal
SK-OV-3 ovarian = test system: SK-OV-3 ovarian
UACC-62 melanoma = test system: UACC-62 melanoma
HCT-15 colon = test system: HCT-15 colon
SR leukemia = test system: SR leukemia
NCI/ADR-RES ovarian = test system: NCI/ADR-RES ovarian
SK-MEL-2 melanoma = test system: SK-MEL-2 melanoma
OVCAR-8 ovarian = test system: OVCAR-8 ovarian
SK-MEL-5 melanoma = test system: SK-MEL-5 melanoma
CAKI-1 renal = test system: CAKI-1 renal
SF-268 CNS = test system: SF-268 CNS
HCT-116 colon = test system: HCT-116 colon
PC-3 prostate = test system: PC-3 prostate
SK-MEL-28 melanoma = test system: SK-MEL-28 melanoma
K-562 leukemia = test system: K-562 leukemia
EKVX NSCLC = test system: EKVX NSCLC
HCC-2998 colon = test system: HCC-2998 colon
KM12 colon = test system: KM12 colon
HOP-62 NSCLC = test system: HOP-62 NSCLC
UACC-257 melanoma = test system: UACC-257 melanoma
CCRF-CEM leukemia = test system: CCRF-CEM leukemia
NCI-H226 lung = test system: NCI-H226 lung
T-47D breast = test system: T-47D breast
A498 renal = test system: A498 renal
HS 578T breast = test system: HS 578T breast
ACHN renal = test system: ACHN renal
NCI-H522 lung = test system: NCI-H522 lung
LOX IMVI melanoma = test system: LOX IMVI melanoma
SN12C renal = test system: SN12C renal
MCF7 breast = test system: MCF7 breast
RPMI-8226 leukemia = test system: RPMI-8226 leukemia
SNB-75 CNS = test system: SNB-75 CNS
SF-539 CNS = test system: SF-539 CNS

## Cn1c(O)c(C2=Nc3ccccc3C2=O)c2ccccc21
SW-620 colon
  TGI: > 100 µM
BT-549 breast
  TGI: > 100 µM
HT29 colon
  TGI: > 100 µM
MALME-3M melanoma
  TGI: > 100 µM
OVCAR-5 ovarian
  TGI: > 100 µM
SF-295 CNS
  TGI: > 100 µM
U251 CNS
  TGI: > 100 µM
NCI-H460 lung
  TGI: > 100 µM
M14 melanoma
  TGI: > 100 µM
SNB-19 CNS
  TGI: > 100 µM
OVCAR-3 ovarian
  TGI: > 100 µM
NCI-H23 lung
  TGI: > 100 µM
UO-31 renal
  TGI: > 100 µM
COLO 205 colon
  TGI: > 100 µM
A549 NSCLC
  TGI: > 100 µM
MOLT-4 leukemia
  TGI: > 100 µM
HOP-92 NSCLC
  TGI: > 100 µM
DU-145 prostate
  TGI: > 100 µM
MDA-MB-435
  TGI: > 100 µM
RXF 393 renal
  TGI: > 100 µM
OVCAR-4 ovarian
  TGI: > 100 µM
MDA-N
  TGI: > 100 µM
MDA-MB-231 breast
  TGI: > 100 µM
IGROV1 ovarian
  TGI: > 100 µM
786-0 renal
  TGI: > 100 µM
TK-10 renal
  TGI: > 100 µM
SK-OV-3 ovarian
  TGI: > 100 µM
UACC-62 melanoma
  TGI: > 100 µM
HCT-15 colon
  TGI: > 100 µM
SR leukemia
  TGI: > 100 µM
NCI/ADR-RES ovarian
  TGI: > 100 µM
SK-MEL-2 melanoma
  TGI: > 100 µM
OVCAR-8 ovarian
  TGI: > 100 µM
SK-MEL-5 melanoma
  TGI: > 100 µM
CAKI-1 renal
  TGI: > 100 µM
SF-268 CNS
  TGI: > 100 µM
HCT-116 colon
  TGI: > 100 µM
PC-3 prostate
  TGI: > 100 µM
SK-MEL-28 melanoma
  TGI: > 100 µM
K-562 leukemia
  TGI: > 100 µM
EKVX NSCLC
  TGI: > 100 µM
HCC-2998 colon
  TGI: > 100 µM
KM12 colon
  TGI: > 100 µM
HOP-62 NSCLC
  TGI: > 100 µM
UACC-257 melanoma
  TGI: > 100 µM
CCRF-CEM leukemia
  TGI: > 100 µM
NCI-H226 lung
  TGI: > 100 µM
T-47D breast
  TGI: > 100 µM
A498 renal
  TGI: > 100 µM
HS 578T breast
  TGI: > 100 µM
ACHN renal
  TGI: > 100 µM
NCI-H522 lung
  TGI: > 100 µM
LOX IMVI melanoma
  TGI: > 100 µM
SN12C renal
  TGI: > 100 µM
MCF7 breast
  TGI: > 100 µM
RPMI-8226 leukemia
  TGI: > 100 µM
SNB-75 CNS
  TGI: > 100 µM

## COc1ccc2[nH]c(S(=O)(=O)N3CC(CCl)c4ccc(N)cc43)cc2c1 (stereo not given)
SW-620 colon
  TGI: > 100 µM
BT-549 breast
  TGI: 27.6 µM
HT29 colon
  TGI: 4.69 µM
MALME-3M melanoma
  TGI: 27.6 µM
OVCAR-5 ovarian
  TGI: 35.2 µM
SF-295 CNS
  TGI: 2.27 µM
U251 CNS
  TGI: > 70.5 µM
NCI-H460 lung
  TGI: 14.2 µM
M14 melanoma
  TGI: 16.6 µM
SNB-19 CNS
  TGI: > 100 µM
OVCAR-3 ovarian
  TGI: 25.8 µM
UO-31 renal
  TGI: 4 µM
COLO 205 colon
  TGI: 53.3 µM
A549 NSCLC
  TGI: 36 µM
MOLT-4 leukemia
  TGI: 18.4 µM
HOP-92 NSCLC
  TGI: 63.4 µM
DU-145 prostate
  TGI: > 37.4 µM
MDA-MB-435
  TGI: 3.35 µM
RXF 393 renal
  TGI: 29.4 µM
OVCAR-4 ovarian
  TGI: 35.3 µM
MDA-N
  TGI: < 0.0189 µM
MDA-MB-231 breast
  TGI: 26.9 µM
IGROV1 ovarian
  TGI: 24.2 µM
786-0 renal
  TGI: 14.7 µM
TK-10 renal
  TGI: > 82.3 µM
SK-OV-3 ovarian
  TGI: 38.3 µM
UACC-62 melanoma
  TGI: 25.4 µM
HCT-15 colon
  TGI: 26.4 µM
SR leukemia
  TGI: 16.9 µM
NCI/ADR-RES ovarian
  TGI: 18.6 µM
OVCAR-8 ovarian
  TGI: 19.4 µM
CAKI-1 renal
  TGI: 19.9 µM
SF-539 CNS
  TGI: 12.7 µM
SF-268 CNS
  TGI: 14.1 µM
HCT-116 colon
  TGI: > 31.8 µM
PC-3 prostate
  TGI: 16.6 µM
SK-MEL-28 melanoma
  TGI: 68.2 µM
EKVX NSCLC
  TGI: 52.6 µM
HCC-2998 colon
  TGI: 14.9 µM
KM12 colon
  TGI: 3.86 µM
HOP-62 NSCLC
  TGI: 28.6 µM
UACC-257 melanoma
  TGI: 67.5 µM
CCRF-CEM leukemia
  TGI: > 50.7 µM
NCI-H226 lung
  TGI: 20.1 µM
T-47D breast
  TGI: > 100 µM
A498 renal
  TGI: 17.6 µM
HS 578T breast
  TGI: 16.5 µM
ACHN renal
  TGI: 49.5 µM
NCI-H522 lung
  TGI: 10.1 µM
LOX IMVI melanoma
  TGI: 17.7 µM
SN12C renal
  TGI: 16.5 µM
MCF7 breast
  TGI: > 100 µM
RPMI-8226 leukemia
  TGI: 22 µM
